Test system: MV-4-11 cells
Assay: Gene expression microarray analysis (Affymetrix PrimeView) and GSEA
Assay type: cell-based, human
Design: RFU PODN (11730768_x_at) / Fold change /veh PODN (11730768_x_at) / RFU LINC00158 (11744669_a_at) / Fold change /veh LINC00158 (11744669_a_at) / RFU DUSP10 (11751237_a_at) / Fold change /veh DUSP10 (11751237_a_at) / RFU ID3 (11757404_x_at) / Fold change /veh ID3 (11757404_x_at) / RFU PLEKHG5 (11737974_s_at) / Fold change /veh PLEKHG5 (11737974_s_at) / RFU LRRC4B (11730491_at) / Fold change /veh LRRC4B (11730491_at) / RFU GIMAP4 (11747438_a_at) / Fold change /veh GIMAP4 (11747438_a_at) / RFU KRT8 (11758183_x_at) / Fold change /veh KRT8 (11758183_x_at) / RFU CNN1 (11734310_a_at) / Fold change /veh CNN1 (11734310_a_at) / RFU VPS37D (11726825_at) / Fold change /veh VPS37D (11726825_at) / RFU C10orf10 (11716522_x_at) / Fold change /veh C10orf10 (11716522_x_at) / RFU KIR2DL2 /// KIR2DL4 /// KIR2DL5A /// KIR2DL5B /// KIR2DS1 /// KIR2DS2 /// KIR2DS3 /// KIR2DS4 /// KIR3DL3 /// KIR3DL3 /// KIR3DS1 (11738374_at) / Fold change /veh KIR2DL2 /// KIR2DL4 /// KIR2DL5A /// KIR2DL5B /// KIR2DS1 /// KIR2DS2 /// KIR2DS3 /// KIR2DS4 /// KIR3DL3 /// KIR3DL3 /// KIR3DS1 (11738374_at) / RFU C1QL1 (11718748_at) / Fold change /veh C1QL1 (11718748_at) / RFU TMPRSS4 (11747572_a_at) / Fold change /veh TMPRSS4 (11747572_a_at) / RFU HAMP (11756126_x_at) / Fold change /veh HAMP (11756126_x_at) / RFU RNFT2 (11725882_a_at) / Fold change /veh RNFT2 (11725882_a_at) / RFU NR4A2 (11747474_a_at) / Fold change /veh NR4A2 (11747474_a_at) / RFU ABCC12 (11746883_a_at) / Fold change /veh ABCC12 (11746883_a_at) / RFU TMEM136 (11760407_x_at) / Fold change /veh TMEM136 (11760407_x_at) / RFU CLDN22 /// WWC2 (11732394_at) / Fold change /veh CLDN22 /// WWC2 (11732394_at) / RFU HLA-DPB1 (11760878_x_at) / Fold change /veh HLA-DPB1 (11760878_x_at) / RFU SPINT1 (11716480_a_at) / Fold change /veh SPINT1 (11716480_a_at) / RFU GAP43 (11754022_s_at) / Fold change /veh GAP43 (11754022_s_at) / RFU A4GNT (11735810_at) / Fold change /veh A4GNT (11735810_at) / RFU PRB3 (11715151_x_at) / Fold change /veh PRB3 (11715151_x_at) / RFU TUBB4B (11761932_at) / Fold change /veh TUBB4B (11761932_at) / RFU CAPN14 (11732068_a_at) / Fold change /veh CAPN14 (11732068_a_at) / RFU TMCC2 (11721928_a_at) / Fold change /veh TMCC2 (11721928_a_at) / RFU IRGQ (11745062_a_at) / Fold change /veh IRGQ (11745062_a_at) / RFU FAM174B (11720279_a_at) / Fold change /veh FAM174B (11720279_a_at) / RFU TMPRSS4 (11748680_a_at) / Fold change /veh TMPRSS4 (11748680_a_at) / RFU FAM212B (11763350_a_at) / Fold change /veh FAM212B (11763350_a_at) / RFU PLEKHG5 (11743358_a_at) / Fold change /veh PLEKHG5 (11743358_a_at) / RFU ZSCAN30 (11745921_a_at) / Fold change /veh ZSCAN30 (11745921_a_at) / RFU CMKLR1 (11741424_a_at) / Fold change /veh CMKLR1 (11741424_a_at) / RFU LOC101060620 /// MAPK8IP1 (11723275_at) / Fold change /veh LOC101060620 /// MAPK8IP1 (11723275_at) / RFU SPTSSB (11747773_x_at) / Fold change /veh SPTSSB (11747773_x_at) / RFU PRSS12 (11739890_at) / Fold change /veh PRSS12 (11739890_at) / RFU BIN1 (11741810_x_at) / Fold change /veh BIN1 (11741810_x_at) / RFU WNT11 (11732464_a_at) / Fold change /veh WNT11 (11732464_a_at) / RFU C10orf10 (11716521_a_at) / Fold change /veh C10orf10 (11716521_a_at) / RFU C5orf56 (11738089_at) / Fold change /veh C5orf56 (11738089_at) / RFU CYB561 (11721691_x_at) / Fold change /veh CYB561 (11721691_x_at) / RFU ANKRD19P (11752326_a_at) / Fold change /veh ANKRD19P (11752326_a_at) / RFU OR2T12 /// OR2T33 /// OR2T8 (11738714_s_at) / Fold change /veh OR2T12 /// OR2T33 /// OR2T8 (11738714_s_at) / RFU VCAN (11748164_a_at) / Fold change /veh VCAN (11748164_a_at) / RFU JSRP1 (11732532_at) / Fold change /veh JSRP1 (11732532_at) / RFU KRTAP10-11 (11738290_x_at) / Fold change /veh KRTAP10-11 (11738290_x_at) / RFU MYO3A (11730013_a_at) / Fold change /veh MYO3A (11730013_a_at) / RFU EBF3 (11725865_a_at) / Fold change /veh EBF3 (11725865_a_at) / RFU CAMK2N1 (11719241_x_at) / Fold change /veh CAMK2N1 (11719241_x_at) / RFU C5orf56 (11738088_a_at) / Fold change /veh C5orf56 (11738088_a_at) / RFU OLFML3 (11715873_a_at) / Fold change /veh OLFML3 (11715873_a_at) / RFU LOC100653217 /// NTM (11731650_a_at) / Fold change /veh LOC100653217 /// NTM (11731650_a_at) / RFU MAPK11 (11762145_a_at) / Fold change /veh MAPK11 (11762145_a_at) / RFU FIZ1 (11724087_x_at) / Fold change /veh FIZ1 (11724087_x_at) / RFU OASL (11726364_x_at) / Fold change /veh OASL (11726364_x_at) / RFU SOX15 (11748057_x_at) / Fold change /veh SOX15 (11748057_x_at) / RFU CD79A (11719716_a_at) / Fold change /veh CD79A (11719716_a_at) / RFU HIST1H1D (11736915_at) / Fold change /veh HIST1H1D (11736915_at) / RFU CASKIN2 (11723855_a_at) / Fold change /veh CASKIN2 (11723855_a_at) / RFU LOC730098 (11760151_x_at) / Fold change /veh LOC730098 (11760151_x_at) / RFU OR4N2 (11742367_at) / Fold change /veh OR4N2 (11742367_at) / RFU PRRT2 (11749266_a_at) / Fold change /veh PRRT2 (11749266_a_at) / RFU SNX32 (11753110_a_at) / Fold change /veh SNX32 (11753110_a_at) / RFU CDHR5 (11726645_a_at) / Fold change /veh CDHR5 (11726645_a_at) / RFU RCAN1 (11760418_a_at) / Fold change /veh RCAN1 (11760418_a_at) / RFU FAM167A (11723789_a_at) / Fold change /veh FAM167A (11723789_a_at) / RFU FAM26E (11764081_at) / Fold change /veh FAM26E (11764081_at) / RFU ISYNA1 (11749810_s_at) / Fold change /veh ISYNA1 (11749810_s_at) / RFU ACY1 (11761880_at) / Fold change /veh ACY1 (11761880_at) / RFU 11764098_at / Fold change /veh 11764098_at / RFU SAMD14 (11745864_x_at) / Fold change /veh SAMD14 (11745864_x_at) / RFU NPB (11741838_a_at) / Fold change /veh NPB (11741838_a_at) / RFU TMPRSS6 (11731388_a_at) / Fold change /veh TMPRSS6 (11731388_a_at) / RFU KRTAP10-2 (11738614_at) / Fold change /veh KRTAP10-2 (11738614_at) / RFU ARHGAP8 /// PRR5-ARHGAP8 (11727945_x_at) / Fold change /veh ARHGAP8 /// PRR5-ARHGAP8 (11727945_x_at) / RFU KRTAP5-7 /// NADSYN1 (11734609_at) / Fold change /veh KRTAP5-7 /// NADSYN1 (11734609_at) / RFU RASL12 (11751679_a_at) / Fold change /veh RASL12 (11751679_a_at) / RFU CDKN2B (11736163_a_at) / Fold change /veh CDKN2B (11736163_a_at) / RFU PRF1 (11729649_at) / Fold change /veh PRF1 (11729649_at) / RFU, ZNF638 /// ZNF638-IT1 / Fold change vs veh, ZNF638 /// ZNF638-IT1 / RFU, PANK3 / Fold change vs veh, PANK3 / RFU, SH3YL1 / Fold change vs veh, SH3YL1 / RFU, ZEB2 / Fold change vs veh, ZEB2 / RFU, NRIP1 / Fold change vs veh, NRIP1 / RFU, PTTG1IP / Fold change vs veh, PTTG1IP / RFU, CAPN2 / Fold change vs veh, CAPN2 / RFU, MED14 / Fold change vs veh, MED14 / RFU, SNORA58 / Fold change vs veh, SNORA58 / RFU, C1orf63 / Fold change vs veh, C1orf63 / RFU, LRRFIP1 / Fold change vs veh, LRRFIP1 / RFU, NDUFAF7 / Fold change vs veh, NDUFAF7 / RFU, SLC12A2 / Fold change vs veh, SLC12A2 / RFU, IBTK / Fold change vs veh, IBTK / RFU, ESF1 / Fold change vs veh, ESF1 / Fold change vs veh, TMEM50B / RFU, TAOK1 / Fold change vs veh, TAOK1 / RFU, ACBD3 / Fold change vs veh, ACBD3 / RFU, TMA16 / Fold change vs veh, TMA16 / RFU, RWDD3 / Fold change vs veh, RWDD3 / RFU, BCAT1 / Fold change vs veh, BCAT1 / RFU, EDEM3 / Fold change vs veh, EDEM3 / RFU, TMEM33 / Fold change vs veh, TMEM33 / RFU, WDR75 / Fold change vs veh, WDR75 / RFU, AHCTF1 / Fold change vs veh, AHCTF1 / RFU, TFRC / Fold change vs veh, TFRC / RFU, ZDHHC17 / Fold change vs veh, ZDHHC17 / RFU, NOM1 / Fold change vs veh, NOM1 / RFU, ARL8B / Fold change vs veh, ARL8B / RFU, ZBTB11 / Fold change vs veh, ZBTB11 / RFU, TAMM41 / Fold change vs veh, TAMM41 / RFU, KIAA1704 /// LOC100996395 / Fold change vs veh, KIAA1704 /// LOC100996395 / RFU, ING1 / Fold change vs veh, ING1 / RFU, TRMT61B / Fold change vs veh, TRMT61B / RFU, FUBP3 / Fold change vs veh, FUBP3 / RFU, TP53 / Fold change vs veh, TP53 / RFU, TNKS2 / Fold change vs veh, TNKS2 / RFU, ZFP14 / Fold change vs veh, ZFP14 / RFU, ACTR2 / Fold change vs veh, ACTR2 / RFU, PPP3R1 / Fold change vs veh, PPP3R1 / RFU, PIK3R1 / Fold change vs veh, PIK3R1 / RFU, HNRNPA1 / Fold change vs veh, HNRNPA1 / RFU, RNF170 / Fold change vs veh, RNF170 / RFU, ZNF28 / Fold change vs veh, ZNF28 / RFU, RNGTT / Fold change vs veh, RNGTT / RFU, OGT / Fold change vs veh, OGT / RFU, BRD1 / Fold change vs veh, BRD1 / RFU, MARS / Fold change vs veh, MARS / RFU, ZNF655 / Fold change vs veh, ZNF655 / RFU, FAHD1 / Fold change vs veh, FAHD1 / RFU, BDP1 / Fold change vs veh, BDP1 / RFU, LRRCC1 / Fold change vs veh, LRRCC1 / RFU, ARID1A / Fold change vs veh, ARID1A / RFU, ZNF146 / Fold change vs veh, ZNF146 / RFU, ZNF330 / Fold change vs veh, ZNF330 / RFU, GPN3 / Fold change vs veh, GPN3 / RFU, C9orf123 / Fold change vs veh, C9orf123 / RFU, N4BP2L2 / Fold change vs veh, N4BP2L2 / RFU, ARFIP1 / Fold change vs veh, ARFIP1 / RFU, FAM179B / Fold change vs veh, FAM179B / RFU, BCL10 / Fold change vs veh, BCL10 / RFU, UHRF1BP1L / Fold change vs veh, UHRF1BP1L / RFU, BET1 / Fold change vs veh, BET1 / RFU, CNOT2 / Fold change vs veh, CNOT2 / RFU, ZNF268 / Fold change vs veh, ZNF268 / Fold change vs veh, ZNF507 / RFU, DGCR2 / Fold change vs veh, DGCR2 / RFU, WDSUB1 / Fold change vs veh, WDSUB1 / Fold change vs veh, HSP90B1 /// MIR3652 / RFU, ADSS / Fold change vs veh, ADSS / RFU, GK / Fold change vs veh, GK / RFU, ZNF148 / Fold change vs veh, ZNF148 / RFU, TAF9 / Fold change vs veh, TAF9 / RFU, SLC1A5 / Fold change vs veh, SLC1A5 / RFU, SLMO2 / Fold change vs veh, SLMO2 / RFU, ABCC4 / Fold change vs veh, ABCC4 / RFU, LOC101060439 /// RAP1B / Fold change vs veh, LOC101060439 /// RAP1B / RFU, RFX7 / Fold change vs veh, RFX7 / RFU, GTPBP10 / Fold change vs veh, GTPBP10 / RFU, CNEP1R1 / Fold change vs veh, CNEP1R1 / RFU, BIVM-ERCC5 /// ERCC5 / Fold change vs veh, BIVM-ERCC5 /// ERCC5 / RFU, ILF3 / Fold change vs veh, ILF3 / RFU 11762660_at / Fold change /veh 11762660_at / RFU VCAN (11757783_s_at) / Fold change /veh VCAN (11757783_s_at) / RFU DDX43 (11728927_at) / Fold change /veh DDX43 (11728927_at) / RFU KRT8 (11758188_x_at) / Fold change /veh KRT8 (11758188_x_at) / RFU NKD1 (11759106_at) / Fold change /veh NKD1 (11759106_at) / RFU SRD5A1 (11742802_a_at) / Fold change /veh SRD5A1 (11742802_a_at) / RFU TPSAB1 /// TPSB2 (11721975_s_at) / Fold change /veh TPSAB1 /// TPSB2 (11721975_s_at) / RFU GSTM3 (11746129_a_at) / Fold change /veh GSTM3 (11746129_a_at) / RFU IL23R (11737362_x_at) / Fold change /veh IL23R (11737362_x_at) / RFU TMEM51 (11727254_a_at) / Fold change /veh TMEM51 (11727254_a_at) / RFU PIWIL2 (11732686_x_at) / Fold change /veh PIWIL2 (11732686_x_at) / RFU ORM1 (11744905_x_at) / Fold change /veh ORM1 (11744905_x_at) / RFU CCDC152 (11743942_at) / Fold change /veh CCDC152 (11743942_at) / RFU ECM1 (11717891_a_at) / Fold change /veh ECM1 (11717891_a_at) / RFU IL23R (11748794_a_at) / Fold change /veh IL23R (11748794_a_at) / RFU TNFAIP8L3 (11732012_x_at) / Fold change /veh TNFAIP8L3 (11732012_x_at) / RFU MBOAT4 (11741988_at) / Fold change /veh MBOAT4 (11741988_at) / RFU 11764193_at / Fold change /veh 11764193_at / RFU TMEM53 (11763286_at) / Fold change /veh TMEM53 (11763286_at) / RFU MAGEB2 (11727129_at) / Fold change /veh MAGEB2 (11727129_at) / RFU TMEM200A (11744735_a_at) / Fold change /veh TMEM200A (11744735_a_at) / RFU CCDC152 (11751479_a_at) / Fold change /veh CCDC152 (11751479_a_at) / RFU FAM211A (11726209_a_at) / Fold change /veh FAM211A (11726209_a_at) / RFU RGS16 (11746705_a_at) / Fold change /veh RGS16 (11746705_a_at) / RFU VCAN (11755009_s_at) / Fold change /veh VCAN (11755009_s_at) / RFU RHOB (11743442_s_at) / Fold change /veh RHOB (11743442_s_at) / RFU RGS16 (11720943_a_at) / Fold change /veh RGS16 (11720943_a_at) / RFU RGS16 (11720944_at) / Fold change /veh RGS16 (11720944_at) / RFU, VPS4B / Fold change vs veh, VPS4B / RFU, CREB1 / Fold change vs veh, CREB1 / RFU, DNAJC13 / Fold change vs veh, DNAJC13 / RFU, GNAQ / Fold change vs veh, GNAQ / RFU, CDK5R1 / Fold change vs veh, CDK5R1 / RFU, ZRANB3 / Fold change vs veh, ZRANB3 / RFU, CUL4A / Fold change vs veh, CUL4A / RFU, CCNY / Fold change vs veh, CCNY / RFU, UFL1 / Fold change vs veh, UFL1 / RFU, COG3 / Fold change vs veh, COG3 / RFU, DIAPH2 / Fold change vs veh, DIAPH2 / RFU, SKA2 / Fold change vs veh, SKA2 / RFU, AFF3 / Fold change vs veh, AFF3 / RFU, LMF1 / Fold change vs veh, LMF1 / RFU, IPO11 / Fold change vs veh, IPO11 / RFU, DFFB / Fold change vs veh, DFFB / RFU, FOXP1 / Fold change vs veh, FOXP1 / RFU, CARD8 / Fold change vs veh, CARD8 / RFU, STRN3 / Fold change vs veh, STRN3 / RFU, ADK / Fold change vs veh, ADK / RFU, RASSF2 / Fold change vs veh, RASSF2 / RFU, WIPF1 / Fold change vs veh, WIPF1 / RFU, LARP1B / Fold change vs veh, LARP1B / RFU, RASA1 / Fold change vs veh, RASA1 / RFU, RB1 / Fold change vs veh, RB1 / RFU, PPFIA1 / Fold change vs veh, PPFIA1 / RFU, MAT2A / Fold change vs veh, MAT2A / RFU, CCT5 / Fold change vs veh, CCT5 / RFU, WDR92 / Fold change vs veh, WDR92 / RFU, CUX1 / Fold change vs veh, CUX1 / RFU, TTC7A / Fold change vs veh, TTC7A / RFU, TMEM135 / Fold change vs veh, TMEM135 / RFU, DEPTOR / Fold change vs veh, DEPTOR / RFU, CPM / Fold change vs veh, CPM / RFU, DNAJB6 / Fold change vs veh, DNAJB6 / RFU, CACNA2D3 / Fold change vs veh, CACNA2D3 / RFU, DTX4 / Fold change vs veh, DTX4 / RFU, TFCP2 / Fold change vs veh, TFCP2 / RFU, GMCL1 /// GMCL1P1 / Fold change vs veh, GMCL1 /// GMCL1P1 / RFU, AEBP2 / Fold change vs veh, AEBP2 / RFU, SNHG1 /// SNORD22 /// SNORD25 /// SNORD26 /// SNORD27 /// SNORD28 /// SNORD29 /// SNORD31 / Fold change vs veh, SNHG1 /// SNORD22 /// SNORD25 /// SNORD26 /// SNORD27 /// SNORD28 /// SNORD29 /// SNORD31 / Fold change (Aza/veh), C12orf56 (ProbeSet 11735607_a_at) / Fold change (ACY-1035/veh), C12orf56 (ProbeSet 11735607_a_at) / Fold change (Aza/veh), FGFR1OP (ProbeSet 11751329_s_at) / Fold change (ACY-1035/veh), FGFR1OP (ProbeSet 11751329_s_at) / Fold change (Aza/veh), VPS36 (ProbeSet 11739960_a_at) / Fold change (ACY-1035/veh), VPS36 (ProbeSet 11739960_a_at) / RFU SYPL1 (11715823_x_at) / Fold change /veh SYPL1 (11715823_x_at) / RFU IGFBP7 (11715501_s_at) / Fold change /veh IGFBP7 (11715501_s_at) / RFU REEP3 (11722064_at) / Fold change /veh REEP3 (11722064_at) / RFU IGLL1 (11728026_x_at) / Fold change /veh IGLL1 (11728026_x_at): dose or concentration left out as unconfirmed
Conditions: MV-4-11 cells, 48 hours

Nc1ccc(-c2cccs2)cc1NC(=O)c1ccc2c(c1)cc(C1CC1)n2CCN1CCOCC1 [ACY-1035]
RFU VPS37D (11726825_at): 17.46 RFU
